The source of these data is PubChem BioAssay (NCI).

Structures are written as SMILES.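 1) Cells in 96-well plates. 2) Compound, 48 h, 5 concentrations. 3) Linear interpolation between surrounding doses. 4) Unreached endpoint = highest concentration. At the TGI there is no net growth.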

The subject of one assay is M14 melanoma. Kind of assay: growth of human tumour cells (NCI), 48 h.
`Oc1c(N2CCCCC2)cc(-c2cc(N3CCCCC3)c(O)c3ccccc23)c2ccccc12` registered a TGI of 32 µM.

Take `O=c1cc(Nc2cccc(O)c2)[nH]c(=O)[nH]1`: the TGI was greater than 100 µM.

Turning to `NCCOc1cccc(C2(N3CCCCC3)CCCCC2)c1`, the TGI was 30.2 µM.

For `COC(=O)[C@@]12OC[C@]34C([C@@H](O)C1O)[C@@]1(C)CC(=O)C(OC(=O)CC(C)C(F)(F)F)=C(C)C1C[C@H]3OC(=O)[C@H](O)[C@H]42` (stereo partly drawn), the TGI was found to be 9.76 µM.

`CCCCCCCCCCCCCCCCCCNc1ccn(C2OC(COP(=O)(O)OCC3OC(n4ccc(N)nc4=O)C(O)C3O)C(O)C2O)c(=O)n1` (stereo not drawn) registered a TGI greater than 100 µM.

Molecule `CCOc1cnc(C(O)(c2ccccc2)c2ccccc2)o1` gave a TGI greater than 100 µM.

Regarding `CC(=O)c1ccc(Nc2c3c(nc4ccccc24)CCCC3)cc1`, the TGI is 41.7 µM.

On to `S=C1Cc2c(-c3ccccc3)cc(-c3cccc(Cl)c3)nc2-c2ccccc2N1`, for which the TGI is greater than 49.7 µM.

In turn, `N#Cc1c(NC(=O)C(F)(F)F)sc2c3c(=O)c4ccccc4c(=O)c=3oc3ccccc3c12` yielded a TGI greater than 61.7 µM.

For the molecule `Cc1c(C)c2c(c(N)c1C#N)C(=O)N(Cc1ccc(S(N)(=O)=O)cc1)C2=O`, the TGI is greater than 73.6 µM.

On to `CN(NC1=NCCO1)c1ccc2ccccc2c1`, for which the TGI is greater than 100 µM.

Take `COC(=O)/C=C/c1ccc(OP(=O)(O)O)c(OC)c1`: the TGI was greater than 100 µM.

In the case of `COc1cc2nc(Cl)nc(NS(=O)(=O)c3cc4ccccc4s3)c2cc1OC`, the TGI stood at 85 µM.

The molecule `COC(=O)/C=C(\C(=O)OC)c1cc(C)c2cc(C(C)C)ccc(C)c1-2` showed a TGI greater than 100 µM.

Regarding `C[C@@H](CC(=O)OCc1ccccc1)OC1OC(COC(=O)C(C)(C)C)C(OC(=O)C(C)(C)C)C(OC(=O)C(C)(C)C)C1OC(=O)C(C)(C)C` (stereo partly drawn), the TGI was greater than 100 µM.

Molecule `CC(C)(C)OC(=O)N(CCCCNC(=O)C(F)(F)F)CCCNC(=O)C(F)(F)F` had a TGI greater than 100 µM.

As to `C=C1CC[C@@H](CCC2CCC3(OC2)O[C@]2(O)CC[C@@]3(C)OC2(C)C)C(C)(C)[C@H]1C/C=C1\CCOC1=O` (stereo partly drawn), the TGI was greater than 100 µM.

Another assay relates to ACHN renal. Kind of assay: growth of human tumour cells (NCI), 48 h.
Consider `Oc1c(N2CCCCC2)cc(-c2cc(N3CCCCC3)c(O)c3ccccc23)c2ccccc12`, for which the TGI is greater than 100 µM.

The molecule `O=c1cc(Nc2cccc(O)c2)[nH]c(=O)[nH]1` displayed a TGI greater than 100 µM.

`NCCOc1cccc(C2(N3CCCCC3)CCCCC2)c1` registered a TGI greater than 100 µM.

For the molecule `COC(=O)[C@@]12OC[C@]34C([C@@H](O)C1O)[C@@]1(C)CC(=O)C(OC(=O)CC(C)C(F)(F)F)=C(C)C1C[C@H]3OC(=O)[C@H](O)[C@H]42` (stereo partly drawn), the TGI is greater than 62.5 µM.

Molecule `CCCCCCCCCCCCCCCCCCNc1ccn(C2OC(COP(=O)(O)OCC3OC(n4ccc(N)nc4=O)C(O)C3O)C(O)C2O)c(=O)n1` (stereo not drawn) yielded a TGI greater than 100 µM.

In the case of `CCOc1cnc(C(O)(c2ccccc2)c2ccccc2)o1`, the TGI was greater than 100 µM.

`CC(=O)c1ccc(Nc2c3c(nc4ccccc24)CCCC3)cc1` registered a TGI greater than 100 µM.

`S=C1Cc2c(-c3ccccc3)cc(-c3cccc(Cl)c3)nc2-c2ccccc2N1` gave a TGI of 3.89 µM.

As for `N#Cc1c(NC(=O)C(F)(F)F)sc2c3c(=O)c4ccccc4c(=O)c=3oc3ccccc3c12`, the TGI was greater than 58 µM.

The molecule `Cc1c(C)c2c(c(N)c1C#N)C(=O)N(Cc1ccc(S(N)(=O)=O)cc1)C2=O` gave a TGI greater than 63.4 µM.

Consider `CN(NC1=NCCO1)c1ccc2ccccc2c1`, for which the TGI is greater than 100 µM.

`COC(=O)/C=C/c1ccc(OP(=O)(O)O)c(OC)c1` came in with a TGI greater than 100 µM.

Molecule `COc1cc2nc(Cl)nc(NS(=O)(=O)c3cc4ccccc4s3)c2cc1OC` showed a TGI of 99.6 µM.

Consider `COC(=O)/C=C(\C(=O)OC)c1cc(C)c2cc(C(C)C)ccc(C)c1-2`, for which the TGI was greater than 100 µM.

Molecule `C[C@@H](CC(=O)OCc1ccccc1)OC1OC(COC(=O)C(C)(C)C)C(OC(=O)C(C)(C)C)C(OC(=O)C(C)(C)C)C1OC(=O)C(C)(C)C` (stereo partly drawn) showed a TGI greater than 100 µM.

Turning to `CC(C)(C)OC(=O)N(CCCCNC(=O)C(F)(F)F)CCCNC(=O)C(F)(F)F`, the TGI was greater than 100 µM.

`C=C1CC[C@@H](CCC2CCC3(OC2)O[C@]2(O)CC[C@@]3(C)OC2(C)C)C(C)(C)[C@H]1C/C=C1\CCOC1=O` (stereo partly drawn) gave a TGI greater than 100 µM.

Another assay concerns RXF 393 renal. Kind of assay: growth of human tumour cells (NCI), 48 h.
`Oc1c(N2CCCCC2)cc(-c2cc(N3CCCCC3)c(O)c3ccccc23)c2ccccc12` gave a TGI of 77.7 µM.

`O=c1cc(Nc2cccc(O)c2)[nH]c(=O)[nH]1` came in with a TGI greater than 100 µM.

In turn, `NCCOc1cccc(C2(N3CCCCC3)CCCCC2)c1` showed a TGI greater than 100 µM.

As to `COC(=O)[C@@]12OC[C@]34C([C@@H](O)C1O)[C@@]1(C)CC(=O)C(OC(=O)CC(C)C(F)(F)F)=C(C)C1C[C@H]3OC(=O)[C@H](O)[C@H]42` (stereo partly drawn), the TGI was found to be 23.6 µM.

Molecule `CCCCCCCCCCCCCCCCCCNc1ccn(C2OC(COP(=O)(O)OCC3OC(n4ccc(N)nc4=O)C(O)C3O)C(O)C2O)c(=O)n1` (stereo not drawn) gave a TGI greater than 100 µM.

In turn, `CCOc1cnc(C(O)(c2ccccc2)c2ccccc2)o1` gave a TGI greater than 100 µM.

For `CC(=O)c1ccc(Nc2c3c(nc4ccccc24)CCCC3)cc1`, the TGI amounted to 72.4 µM.

Regarding `S=C1Cc2c(-c3ccccc3)cc(-c3cccc(Cl)c3)nc2-c2ccccc2N1`, the TGI turned out to be 12.8 µM.

`N#Cc1c(NC(=O)C(F)(F)F)sc2c3c(=O)c4ccccc4c(=O)c=3oc3ccccc3c12` returned a TGI greater than 63.4 µM.

Molecule `Cc1c(C)c2c(c(N)c1C#N)C(=O)N(Cc1ccc(S(N)(=O)=O)cc1)C2=O` had a TGI of 39.3 µM.

Turning to `CN(NC1=NCCO1)c1ccc2ccccc2c1`, the TGI is greater than 100 µM.

Molecule `COC(=O)/C=C/c1ccc(OP(=O)(O)O)c(OC)c1` displayed a TGI greater than 100 µM.

`COc1cc2nc(Cl)nc(NS(=O)(=O)c3cc4ccccc4s3)c2cc1OC` showed a TGI of 37.9 µM.

As for `COC(=O)/C=C(\C(=O)OC)c1cc(C)c2cc(C(C)C)ccc(C)c1-2`, the TGI was greater than 100 µM.

For `C[C@@H](CC(=O)OCc1ccccc1)OC1OC(COC(=O)C(C)(C)C)C(OC(=O)C(C)(C)C)C(OC(=O)C(C)(C)C)C1OC(=O)C(C)(C)C` (stereo partly drawn), the TGI is greater than 100 µM.

The molecule `CC(C)(C)OC(=O)N(CCCCNC(=O)C(F)(F)F)CCCNC(=O)C(F)(F)F` displayed a TGI greater than 100 µM.

For the molecule `C=C1CC[C@@H](CCC2CCC3(OC2)O[C@]2(O)CC[C@@]3(C)OC2(C)C)C(C)(C)[C@H]1C/C=C1\CCOC1=O` (stereo partly drawn), the TGI was determined as 49.5 µM.

A further assay relates to KM12 colon. Briefly: growth of human tumour cells (NCI), 48 h.
`Oc1c(N2CCCCC2)cc(-c2cc(N3CCCCC3)c(O)c3ccccc23)c2ccccc12` showed a TGI greater than 100 µM.

`O=c1cc(Nc2cccc(O)c2)[nH]c(=O)[nH]1` displayed a TGI greater than 100 µM.

In turn, `NCCOc1cccc(C2(N3CCCCC3)CCCCC2)c1` yielded a TGI greater than 100 µM.

The molecule `COC(=O)[C@@]12OC[C@]34C([C@@H](O)C1O)[C@@]1(C)CC(=O)C(OC(=O)CC(C)C(F)(F)F)=C(C)C1C[C@H]3OC(=O)[C@H](O)[C@H]42` (stereo partly drawn) displayed a TGI greater than 62.5 µM.

The molecule `CCCCCCCCCCCCCCCCCCNc1ccn(C2OC(COP(=O)(O)OCC3OC(n4ccc(N)nc4=O)C(O)C3O)C(O)C2O)c(=O)n1` (stereo not drawn) gave a TGI greater than 100 µM.

Consider `CCOc1cnc(C(O)(c2ccccc2)c2ccccc2)o1`, for which the TGI was greater than 100 µM.

Turning to `CC(=O)c1ccc(Nc2c3c(nc4ccccc24)CCCC3)cc1`, the TGI was greater than 36 µM.

`S=C1Cc2c(-c3ccccc3)cc(-c3cccc(Cl)c3)nc2-c2ccccc2N1` gave a TGI greater than 100 µM.

The molecule `N#Cc1c(NC(=O)C(F)(F)F)sc2c3c(=O)c4ccccc4c(=O)c=3oc3ccccc3c12` gave a TGI of 26 µM.

`Cc1c(C)c2c(c(N)c1C#N)C(=O)N(Cc1ccc(S(N)(=O)=O)cc1)C2=O` yielded a TGI greater than 100 µM.

In turn, `CN(NC1=NCCO1)c1ccc2ccccc2c1` registered a TGI greater than 100 µM.

The molecule `COC(=O)/C=C/c1ccc(OP(=O)(O)O)c(OC)c1` showed a TGI greater than 100 µM.

In the case of `COc1cc2nc(Cl)nc(NS(=O)(=O)c3cc4ccccc4s3)c2cc1OC`, the TGI was found to be 51.2 µM.

Take `COC(=O)/C=C(\C(=O)OC)c1cc(C)c2cc(C(C)C)ccc(C)c1-2`: the TGI is greater than 100 µM.

`C[C@@H](CC(=O)OCc1ccccc1)OC1OC(COC(=O)C(C)(C)C)C(OC(=O)C(C)(C)C)C(OC(=O)C(C)(C)C)C1OC(=O)C(C)(C)C` (stereo partly drawn): the TGI is greater than 100 µM.

In turn, `CC(C)(C)OC(=O)N(CCCCNC(=O)C(F)(F)F)CCCNC(=O)C(F)(F)F` registered a TGI greater than 100 µM.

The molecule `C=C1CC[C@@H](CCC2CCC3(OC2)O[C@]2(O)CC[C@@]3(C)OC2(C)C)C(C)(C)[C@H]1C/C=C1\CCOC1=O` (stereo partly drawn) displayed a TGI greater than 60.3 µM.
